Laboratory results reported in patent publication EP4755886A1 (Chengdu Chipscreen Pharmaceutical Ltd., priority 2023, dated 2025).

What was measured:
hERG = molecular target: T1, hERG (Homo sapiens, UniProt Q12809); experiment: hERG test (Predictor hERG Fluorescence Polarization Assay Kit); format: binding; conditions: for inhibition at 3.5 h, 10 µM: human, probe Predictor hERG Tracer Red, 10 µM test substance, three duplicate wells; for IC50: only 10 µM tested
T1 construct: purchased ThermoFisher Scientific PV5365
T1 sequence (Q12809 whole entry): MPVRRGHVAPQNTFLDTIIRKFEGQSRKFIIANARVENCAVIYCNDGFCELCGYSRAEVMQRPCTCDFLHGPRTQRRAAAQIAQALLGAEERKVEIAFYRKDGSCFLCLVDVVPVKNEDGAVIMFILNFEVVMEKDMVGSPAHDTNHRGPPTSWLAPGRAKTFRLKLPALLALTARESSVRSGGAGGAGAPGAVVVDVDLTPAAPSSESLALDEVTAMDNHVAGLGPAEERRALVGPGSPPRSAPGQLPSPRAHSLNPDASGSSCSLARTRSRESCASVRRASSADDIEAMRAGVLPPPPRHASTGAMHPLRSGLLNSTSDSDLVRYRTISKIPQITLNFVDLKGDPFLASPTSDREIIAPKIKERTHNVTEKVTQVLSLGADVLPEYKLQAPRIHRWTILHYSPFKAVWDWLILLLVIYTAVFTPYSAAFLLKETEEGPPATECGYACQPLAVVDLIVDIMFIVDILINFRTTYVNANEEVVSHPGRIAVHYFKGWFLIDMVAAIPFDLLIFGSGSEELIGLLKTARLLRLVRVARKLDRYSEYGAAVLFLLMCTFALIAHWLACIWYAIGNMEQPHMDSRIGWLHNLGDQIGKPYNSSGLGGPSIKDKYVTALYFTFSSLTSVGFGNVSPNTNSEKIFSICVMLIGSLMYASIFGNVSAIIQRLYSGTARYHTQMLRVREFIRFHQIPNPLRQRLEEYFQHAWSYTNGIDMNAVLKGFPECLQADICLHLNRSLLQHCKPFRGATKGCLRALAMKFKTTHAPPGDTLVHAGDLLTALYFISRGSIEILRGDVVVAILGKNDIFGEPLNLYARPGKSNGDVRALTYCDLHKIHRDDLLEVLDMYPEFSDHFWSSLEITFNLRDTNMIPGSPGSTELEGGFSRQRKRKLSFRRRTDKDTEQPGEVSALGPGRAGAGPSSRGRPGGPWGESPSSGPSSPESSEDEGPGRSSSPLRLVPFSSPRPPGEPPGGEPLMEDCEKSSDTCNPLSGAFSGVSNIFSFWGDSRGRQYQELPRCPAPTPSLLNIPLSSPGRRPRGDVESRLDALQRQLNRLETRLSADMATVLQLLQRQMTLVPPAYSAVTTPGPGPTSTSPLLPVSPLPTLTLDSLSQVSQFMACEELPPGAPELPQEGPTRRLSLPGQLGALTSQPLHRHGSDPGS
Method: Predictor™ hERG Fluorescence Polarization Assay Kit (ThermoFisher Scientific, PV5365).
The procedures in the kit instructions were followed: 4× Predictor™ hERG Tracer Red, 4× E-4031, and 4× test substance solutions (final assay concentration: 10 µM) were prepared in advance. 5 µL Predictor™ hERG FP Assay Buffer and 5 µL Predictor™ hERG Membrane were added sequentially to the Assay Blank group in a 384-well plate. 2.5 µL Predictor™ hERG FP Assay Buffer, 2.5 µL of 4× E-4031, and 2.5 µL of 4× test substance were added to the negative control group, the positive control group, and the test substance group, respectively, and then 5 µL Predictor™ hERG Membrane and 2.5 µL of 4× Predictor™ hERG Tracer Red were sequentially added. The total volume of the experimental system was 10 µL, and three duplicate wells were set for each group. After loading, the plate was gently tapped to mix well and incubated at room temperature (25 °C) in the dark for 3.5 h. After the incubation was completed, the fluorescence polarization value mP was measured on a microplate reader, and G Factor was 2.14.
The inhibition rate of the test substance was calculated using the following formula: [formula]

wild-type HCT-116 cells = experiment: Cell proliferation (MTS), wild-type HCT-116; format: cell-based; conditions: Homo sapiens, 240 h; wild-type HCT-116, 10 days with compound, MTS reading; read-out: IC50 HCT116 WT
Procedure, shortened: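 Wild-type HCT-116 cells were seeded at 100 cells/well in McCoy's 5A/10% FBS. From day 1 they were treated with compound in 3-fold dilutions (initial 20 µM, 8 points) for 10 days at 37° C. Proliferation was read by MTS on day 11, and IC50 was obtained from a four-parameter logistic fit.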

MTAP^-/- HCT-116 cells = experiment: Cell proliferation (MTS), MTAP-/- HCT-116; format: cell-based, human; conditions: for Selectivity: HCT116 WT IC50 relative to HCT116 MTAP-/- IC50; for IC50: Homo sapiens, 240 h, MTAP-/- HCT-116, 10 days with compound, MTS reading, read-out: IC50 HCT116 MTAP-/-
Procedure, shortened: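 MTAP-/- (CRISPR/Cas9 biallelic knockout) or wild-type HCT-116 cells seeded at 100 cells/well, treated next day with 8-point 3-fold dilutions (top 20 µM) for 10 days at 37 °C, 5% CO2. Viability read by MTS; IC50 from four-parameter logistic fit of inhibition rate vs log concentration.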

PK experiment in mice = conditions: female, BALB/c, mouse, plasma, po, 10 mg/kg
Method: Experimental materials: the experimental animals were healthy adult female BALB/c mice (provided by Sichuan Vital River Laboratory Animal Technology Co., Ltd.).
Administration mode and sample collection in mice: BALB/c female mice received oral intragastrical administration (10 mg/kg, vehicle: 0.5% methylcellulose/0.2% Tween 80), and 60 µL of whole blood from the venous plexus of the fundus of the mice at different time points was collected at 0.25 h, 0.5 h, 1 h, 2 h, 4 h, 6 h, 8 h, and 24 h after administration and centrifuged at 4000 rpm for 6 min to collect plasma.
10 µL of mouse plasma sample was added to 190 µL of acetonitrile solution containing an internal standard to precipitate protein. The mixture was vortexed for 10 min and centrifuged at 4000 rpm for 10 min. The supernatant was collected and added to a 96-well plate. The samples were analyzed by LC-MS/MS. The drug concentrations in the plasma of mice at different time points after intragastric administration of the example compounds were measured by an LC-MS/MS method, and the related pharmacokinetic parameters were calculated, such that the pharmacokinetic behavior of the compounds in the mice was studied, and the pharmacokinetic characteristics were evaluated.

| Structure (SMILES) | IC50 (wild-type HCT-116 cells) [nM] | IC50 (MTAP^-/- HCT-116 cells) [nM] | AUC(0-t) (PK experiment in mice) [ng·h/mL] | Cmax (PK experiment in mice) [ng/mL] | inhibition at 3.5 h, 10 µM (hERG) [%] | IC50 (hERG) [nM] | Selectivity (MTAP^-/- HCT-116 cells) |
| --- | --- | --- | --- | --- | --- | --- | --- |
| CN(C(=O)c1cc2c3c(c(N)nc2cc1Cl)COC3)C1COc2cc(C#Cc3cnn(C)c3)ccc21 (centres unmarked) [Compound 40, 4-amino-7-chloro-N-methyl-N-(6-((1-methyl-1H-pyrazol-4-yl)ethynyl)-2,3-dihydrobenzofuran-3-yl)-1,3-dihydrofuro[3,4-c]quinoline-8-carboxamide] | 1460 | 5.8 |  |  | 22 | > 10000 | 252 |
| CN(C(=O)c1cc2c(cc1F)nc(N)c1cnn(C)c12)[C@@H]1COc2cc(C#Cc3cnn(C4CC4)c3)ccc21 [Compound 12A, (S)-4-amino-N-(6-((1-cyclopropyl-1H-pyrazol-4-yl)ethynyl)-2,3-dihydrobenzofuran-3-yl)-7-fluoro-N,1-dimethyl-1H-pyrazolo[4,3-c]quinoline-8-carboxamide] | 426 | 3.7 | 26900 ± 7450 | 2670 ± 421 | 22.4 | > 10000 | 115 |
| Cc1ncccc1C#Cc1ccc2c(c1)OCC2N(C)C(=O)c1cc2c(cc1F)nc(N)c1cnn(C)c12 (centres unmarked) [Compound 45, 4-amino-7-fluoro-N,1-dimethyl-N-(6-((2-methylpyridin-3-yl)ethynyl)-2,3-dihydrobenzofuran-3-yl)-1H-pyrazolo[4,3-c]quinoline-8-carboxamide] | 654 | 5.9 |  |  | 21 | > 10000 | 111 |
| CN(C(=O)c1ccc2nc(N)c3cnn(C)c3c2c1)C1COc2cc(C#Cc3cnn(C(F)F)c3)ccc21 (centres unmarked) [Compound 30, 4-amino-N-(6-((1-(difluoromethyl)-1H-pyrazol-4-yl)ethynyl)-2,3-dihydrobenzofuran-3-yl)-N,1-dimethyl-1H-pyrazolo[4,3-c]quinoline-8-carboxamide] | 1750 | 8.7 | 12600 ± 1360 | 984 ± 123 |  |  | 201 |
| CN1CCn2c(C#Cc3ccc4c(c3)OC[C@H]4N(C)C(=O)c3cc4c(cc3F)nc(N)c3cnn(C)c34)cnc2C1 [Compound 46A, (S)-4-amino-7-fluoro-N,1-dimethyl-N-(6-((7-methyl-5,6,7,8-tetrahydroimidazo[1,2-a]pyrazin-3-yl)ethynyl)-2,3-dihydrobenzofuran-3-yl)-1H-pyrazolo[4,3-c]quinoline-8-carboxamide] | 158 | 1.1 |  |  | 43.9 ± 18.8 | > 10000 | 144 |
| Cc1nn(C)cc1C#Cc1ccc2c(c1)OCC2N(C)C(=O)c1cc2c(cc1F)nc(N)c1cnn(C)c12 (centres unmarked) [Compound 25, 4-amino-N-(6-((1,3-dimethyl-1H-pyrazol-4-yl)ethynyl)-2,3-dihydrobenzofuran-3-yl)-7-fluoro-N,1-dimethyl-1H-pyrazolo[4,3-c]quinoline-8-carboxamide] | 471 | 4.7 |  |  |  |  | 100 |
| CN(C(=O)c1cc2c(cc1F)nc(N)c1cnn(C)c12)C1COc2cc(C#Cc3cn(C)nc3Cl)ccc21 (centres unmarked) [Compound 24, 4-amino-N-(6-((3-chloro-1-methyl-1H-pyrazol-4-yl)ethynyl)-2,3-dihydrobenzofuran-3-yl)-7-fluoro-N,1-dimethyl-1H-pyrazolo[4,3-c]quinoline-8-carboxamide] | 115 | 1.9 |  |  |  |  | 61 |
| CN(C(=O)c1cc2c(cc1Cl)nc(N)c1cnn(C)c12)[C@@H]1COc2cc(C#Cc3ccnn3C)ccc21 [Compound 53A, (S)-4-amino-7-chloro-N,1-dimethyl-N-(6-((1-methyl-1H-pyrazol-5-yl)ethynyl)-2,3-dihydrobenzofuran-3-yl)-1H-pyrazolo[4,3-c]quinoline-8-carboxamide] | 45 | 1 |  |  |  |  | 45 |
| CN(C(=O)c1ccc2nc(N)c3cnn(C)c3c2c1)C1COc2cc(C#Cc3cn(C)nc3C(F)(F)F)ccc21 (centres unmarked) [Compound 31, 4-amino-N,1-dimethyl-N-(6-((1-methyl-3-(trifluoromethyl)-1H-pyrazol-4-yl)ethynyl)-2,3-dihydrobenzofuran-3-yl)-1H-pyrazolo[4,3-c]quinoline-8-carboxamide] | 1460 | 14.2 |  |  |  |  | 102 |
| CN(C(=O)c1cc2c(cc1Cl)nc(N)c1cnn(C)c12)[C@@H]1COc2cc(C#Cc3cccnc3F)ccc21 [Compound 56A, (S)-4-amino-7-chloro-N-(6-((2-fluoropyridin-3-yl)ethynyl)-2,3-dihydrobenzofuran-3-yl)-N,1-dimethyl-1H-pyrazolo[4,3-c]quinoline-8-carboxamide] | 160 | 3 |  |  |  |  | 53 |
| Cn1cc(C#Cc2ccc3c(c2)OCC3N(C(=O)c2ccc3nc(N)c4cnn(C)c4c3c2)C2CC2)cn1 (centres unmarked) [Compound 2, 4-amino-N-cyclopropyl-1-methyl-N-{6-[(1-methylpyrazol-4-yl)ethynyl]-2,3-dihydro-1-benzofuran-3-yl}pyrazolo[4,3-c]quinoline-8-carboxamide] | 1030 | 13.9 |  |  |  |  | 74 |
| CCn1cc(C#Cc2ccc3c(c2)OC[C@H]3N(C)C(=O)c2ccc3nc(N)c4cnn(C)c4c3c2)cn1 [Compound 20A, (S)-4-amino-N-(6-((1-ethyl-1H-pyrazol-4-yl)ethynyl)-2,3-dihydrobenzofuran-3-yl)-N,1-dimethyl-1H-pyrazolo[4,3-c]quinoline-8-carboxamide] | 1040 | 6.1 |  |  |  |  | 170 |

More lines, main results first:

| IC50 (wild-type HCT-116 cells) [nM] | IC50 (MTAP^-/- HCT-116 cells) [nM] | AUC(0-t) (PK experiment in mice) [ng·h/mL] | Cmax (PK experiment in mice) [ng/mL] | Structure (SMILES) | inhibition at 3.5 h, 10 µM (hERG) [%] | IC50 (hERG) [nM] | Selectivity (MTAP^-/- HCT-116 cells) |
| --- | --- | --- | --- | --- | --- | --- | --- |
| 424 | 4 | 27000 ± 4260 | 5010 ± 846 | CN(C(=O)c1cc2c3c(c(N)nc2cc1Cl)COC3)[C@@H]1COc2cc(C#Cc3cnc4n3CCC4)ccc21 [Compound 75A, (S)-4-amino-7-chloro-N-(6-((6,7-dihydro-5H-pyrrolo[1,2-a]imidazol-3-yl)ethynyl) -2,3-dihydrobenzofuran-3-yl)-N-methyl-1,3-dihydrofuro[3,4-c]quinoline-8-carbo xamide] |  |  | 106 |
| 299 | 2 | 23200 ± 3390 | 3830 ± 533 | CN(C(=O)c1cc2c(cc1F)nc(N)c1cnn(C)c12)[C@@H]1COc2cc(C#Cc3cnc4n3CCCC4)ccc21 [Compound 66A, (S)-4-amino-7-fluoro-N,1-dimethyl-N-(6-((5,6,7,8-tetrahydroimidazo[1,2-a]pyridin-3-yl)ethynyl)-2,3-dihydrobenzofuran-3-yl)-1H-pyrazolo[4,3-c]quinoline-8-carb oxamide] | 14.2 ± 14 | > 10000 | 150 |
| 472 | 2.7 | 14500 ± 1760 | 2810 ± 780 | CN(C(=O)c1cc2c3c(c(N)nc2cc1Cl)COC3)[C@@H]1COc2cc(C#Cc3cnc4n3CCCC4)ccc21 [Compound 74A, (S)-4-amino-7-chloro-N-methyl-N-(6-((5,6,7,8-tetrahydroimidazo[1,2-a]pyridin-3-yl)ethynyl)-2,3-dihydrobenzofuran-3-yl)-1,3-dihydrofuro [3,4-c] quinoline-8-carb oxamide] |  |  | 175 |
| 640 | 7 | 22200 ± 2710 | 2080 ± 299 | CN(C(=O)c1cc2c3c(c(N)nc2cc1Cl)COC3)[C@@H]1COc2cc(C#Cc3cccnc3F)ccc21 [Compound 61A, (S)-4-amino-7-chloro-N-(6-((2-fluoropyridin-3-yl)ethynyl)-2,3-dihydrobenzofuran-3-yl)-N-methyl-1,3-dihydrofuro[3,4-c]quinoline-8-carboxamide] |  |  | 91 |
|  |  | 5130 ± 2920 | 741 ± 601 | CN(C(=O)c1ccc2nc(N)c3cnn(C)c3c2c1)C1COc2cc(C3CC3)ccc21 (centres unmarked) [Reference Example 3, reference compound] |  |  |  |
|  |  | 3270 ± 588 | 649 ± 45 | CN(C(=O)c1cc2c3c(c(N)nc2cc1Cl)COC3)[C@@H]1COc2cc(Br)ccc21 [Reference Example 4, reference compound] |  |  |  |
| 1260 | 15.9 |  |  | CN(C(=O)c1cc2c3c(c(N)nc2cc1Cl)COC3)[C@@H]1COc2cc(C#Cc3ccc4cnn(C)c4c3)ccc21 [Compound 62A, (S)-4-amino-7-chloro-N-methyl-N-(6-((1-methyl-1H-indazol-6-yl)ethynyl)-2,3-dihydrobenzofuran-3-yl)-1,3-dihydrofuro[3,4-c]quinoline-8-carboxamide] |  |  | 79 |
